This note sets out measurements from patent US10538491B2, “4,5-substituted picolinamide and picolinonitrile metabotropic glutamate receptor 2 negative allosteric modulators” (Vanderbilt University, priority 2015, dated 2020).

The target in the experiment is rat mGlu2 (Rattus norvegicus (Rat), UniProt P31421). The experiment can be described thus: mGlu2 Ca2+ flux assay. The format is cell-based. The settings on record: for IC50: Gα15 HEK293 cells stably expressing rat mGlu2, glutamate EC80, >10,000 = no plateau, >30,000 = no measurable activity; for remaining activity at 30 µM: amplitude of response in the presence of 30 μM test compound as percentage of maximal response to glutamate, read-out: rat mGlu2 Glu max. As for the experimental part: Gα15 HEK293 cells stably expressing rat mGlu2 were plated in black-walled, clear-bottomed, poly-D-lysine coated 384-well plates in 20 μL of assay medium (DMEM containing 10% dialyzed FBS, 20 mM HEPES, and 1 mM sodium pyruvate) at a density of 12K cells/well. The cells were grown overnight at 37° C. in the presence of 5% CO2. The next day, medium was removed and the cells incubated with 20 μL of 2.3 μM Fluo-4, AM prepared as a 2.3 mM stock in DMSO and mixed in a 1:1 ratio with 10% (w/v) pluronic acid F-127 and diluted in assay buffer (Hank's balanced salt solution, 20 mM HEPES, and 2.5 mM probenecid) for 45 minutes at 37° C. Dye was removed, 20 μL of assay buffer was added, and the plate was incubated for 5 minutes at room temperature.
rat mGlu2, sequence (P31421 19-872): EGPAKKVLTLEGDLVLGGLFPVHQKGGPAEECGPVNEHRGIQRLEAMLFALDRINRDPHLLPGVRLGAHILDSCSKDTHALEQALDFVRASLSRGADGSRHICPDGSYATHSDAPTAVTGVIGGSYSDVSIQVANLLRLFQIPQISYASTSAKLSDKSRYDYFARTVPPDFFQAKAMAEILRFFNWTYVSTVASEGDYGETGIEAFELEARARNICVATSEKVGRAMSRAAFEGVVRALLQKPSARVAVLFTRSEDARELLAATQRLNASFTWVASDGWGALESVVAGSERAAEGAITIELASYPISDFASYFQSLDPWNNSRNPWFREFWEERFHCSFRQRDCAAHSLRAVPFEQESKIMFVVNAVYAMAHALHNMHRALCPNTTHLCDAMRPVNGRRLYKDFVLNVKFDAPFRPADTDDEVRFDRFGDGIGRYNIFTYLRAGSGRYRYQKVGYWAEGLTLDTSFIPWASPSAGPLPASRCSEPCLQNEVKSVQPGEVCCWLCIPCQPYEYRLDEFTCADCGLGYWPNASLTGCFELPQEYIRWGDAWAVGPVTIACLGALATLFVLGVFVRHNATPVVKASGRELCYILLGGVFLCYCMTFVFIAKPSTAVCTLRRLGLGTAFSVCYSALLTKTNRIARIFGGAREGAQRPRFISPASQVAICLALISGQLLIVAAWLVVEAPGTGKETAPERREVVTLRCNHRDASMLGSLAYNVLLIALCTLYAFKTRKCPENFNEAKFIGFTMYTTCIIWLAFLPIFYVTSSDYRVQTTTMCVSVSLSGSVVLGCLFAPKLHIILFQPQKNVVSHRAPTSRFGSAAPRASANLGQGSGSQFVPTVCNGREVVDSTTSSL
Ca^2+ flux was measured using the Functional Drug Screening System (FDSS7000, Hamamatsu, Japan). After establishment of a fluorescence baseline for about 3 seconds, the compounds of the present invention were added to the cells, and the response in cells was measured. 2.3 minutes later an EC20 concentration of the mGlu2 receptor agonist glutamate was added to the cells, and the response of the cells was measured for 1.9 minutes; an EC80 concentration of agonist was added and readings taken for an additional 1.7 minutes. All test compounds were dissolved and diluted to a concentration of 10 mM in 100% DMSO. Compounds were then serially diluted 1:3 in DMSO into 10 point concentration response curves, transferred to daughter plates, and further diluted into assay buffer to a 2× stock. Calcium fluorescence measures were recorded as fold over basal fluorescence; raw data was then normalized to the maximal response to glutamate. Antagonism of the agonist response of the mGlu2 receptor in the present invention was observed as a decrease in response to nearly maximal concentrations of glutamate in the presence of compound compared to the response to glutamate in the absence of compound.
The raw data file containing all time points was used as the data source in the analysis template. This was saved by the FDSS as a tab-delimited text file. Data were normalized using a static ratio function (F/F0) for each measurement of the total 360 values per well divided by each well's initial value. Data were then reduced to peak amplitudes (Max−Initial Min) using a time range that starts approximately 3 seconds prior to the glutamate EC80 addition and continues for approximately 90 seconds. This is sufficient time to capture the peak amplitude of the cellular calcium response. Individual amplitudes were expressed as % ECMax by multiplying each amplitude by 100 and then dividing the product by the mean of the amplitudes derived from the glutamate ECMax-treated wells. IC50 values for test compounds were generated by fitting the normalized values versus the log of the test compound concentration (in mol/L) using a 4 parameter logistic equation where none of the parameters were fixed. Each of the three values collected at each concentration of test compound were weighted evenly.
For NAMs, potency (IC50) and maximum response (% Glu Max), i.e. the amplitude of response in the presence of 30 μM test compound as a percentage of the maximal response to glutamate, are reported. […] Compounds with no measurable activity are designated as “>30,000 nM” since the top concentration of compound tested in the assay is 30 μM.
(In general: Calcium flux is commonly read through the fluorescence of an indicator in the cells.)

As a reminder, the IC50 is the concentration that inhibits the measured activity by half. Turning to `Cc1ccc(OC(C)COc2cnc(C#N)cc2-c2ccc(F)cc2)cn1` (centres unmarked) [Compound 62, 4-(4-fluorophenyl)-5-(2-((6-methylpyridin-3-yl)oxy)propoxy)picolinonitrile], the IC50 was 4.63 µM and the remaining activity at 30 µM stood at 35.8%.
Turning to `CC(COc1cnc(C#N)cc1-c1ccc(F)cc1)Oc1ccnc(C(F)(F)F)c1` (centres unmarked) [Compound 63, 4-(4-fluorophenyl)-5-(2-((2-(trifluoromethyl)pyridin-4-yl)oxy)propoxy)picolinonitrile], the half-inhibitory concentration (IC50) is greater than 10 µM and the remaining activity at 30 µM is 30.7%.
In turn, `Cc1ncc(OCCCOc2cnc(C#N)cc2-c2ccc(F)cc2)cn1` [Compound 64, 4-(4-fluorophenyl)-5-(3-((2-methylpyrimidin-5-yl)oxy)propoxy)picolinonitrile] had a half-inhibitory concentration (IC50) greater than 30 µM.
For `N#Cc1cc(-c2ccc(F)cc2)c(OCCCOc2cccnc2)cn1` [Compound 65, 4-(4-fluorophenyl)-5-(3-(pyridin-3-yloxy)propoxy)picolinonitrile], the IC50 was greater than 10 µM and the remaining activity at 30 µM came out at 68.8%.
`N#Cc1cc(-c2ccc(F)cc2)c(OCCCOc2ccc(C(F)(F)F)nc2)cn1` [Compound 66, 4-(4-fluorophenyl)-5-(3-((6-(trifluoromethyl)pyridin-3-yl)oxy)propoxy)picolinonitrile] showed a half-maximal inhibitory concentration (IC50) greater than 30 µM.
`N#Cc1cc(-c2ccc(F)cc2)c(OCCCOc2ccnc(C(F)(F)F)c2)cn1` [Compound 67, 4-(4-fluorophenyl)-5-(3-((2-(trifluoromethyl)pyridin-4-yl)oxy)propoxy)picolinonitrile] had an IC50 greater than 30 µM.
For `Cc1ccc(OCCCOc2cnc(C#N)cc2-c2ccc(F)cc2)cn1` [Compound 68, 4-(4-fluorophenyl)-5-(3-((6-methylpyridin-3-yl)oxy)propoxy)picolinonitrile], the IC50 was greater than 10 µM and the remaining activity at 30 µM worked out at 29%.
Consider `C[C@@H]1CN(CCOc2cnc(C#N)cc2-c2ccc(F)cc2)C[C@H](C)O1` [Compound 70, 5-(2-((cis)-2,6-Dimethylmorpholino)ethoxy)-4-(4-fluorophenyl)picolinonitrile], for which the half-inhibitory concentration (IC50) is greater than 30 µM.
Still for that read-out and setting: under `N#Cc1cc(-c2ccc(F)cc2)c(OCCCN2CCOCC2)cn1` [Compound 71, 4-(4-fluorophenyl)-5-(3-morpholinopropoxy)picolinonitrile] stands greater than 30 µM; under `CC1CN(CCCOc2cnc(C#N)cc2-c2ccc(F)cc2)CCO1` (centres unmarked) [Compound 72, 4-(4-fluorophenyl)-5-(3-(2-methylmorpholino)propoxy)picolinonitrile], greater than 30 µM.
Still for that read-out and setting: under `CC1(C)CN(CCCOc2cnc(C#N)cc2-c2ccc(F)cc2)CCO1` [Compound 73, 5-(3-(2,2-dimethylmorpholino)propoxy)-4-(4-fluorophenyl)picolinonitrile] stands greater than 30 µM.
Turning to `N#Cc1cc(-c2ccc(F)cc2)c(OCCCN2CCC(F)(F)CC2)cn1` [Compound 74, 5-(3-(4,4-difluoropiperidin-1-yl)propoxy)-4-(4-fluorophenyl)picolinonitrile], the IC50 was greater than 10 µM and the remaining activity at 30 µM was 49.6%.
In the same order, the values of `Cc1ncc(OCCOc2cnc(C#N)cc2-c2ccc(F)cc2)cn1` [Compound 75, 4-(4-Fluorophenyl)-5-(2-((2-methylpyrimidin-5-yl)oxy)ethoxy)picolinonitrile] are greater than 10 µM and 30.2%.
For `CN(CCOCc1cncc(F)c1)c1cnc(C#N)cc1-c1ccc(F)cc1` [Compound 76, 4-(4-Fluorophenyl)-5-((2-((5-fluoropyridin-3-yl)methoxy)ethyl)(methyl)amino)picolinonitrile], the 50% inhibitory concentration (IC50) is greater than 10 µM and the remaining activity at 30 µM stood at 33.3%.
Taken in the same sequence, the figures for `NC(=O)c1cc(-c2ccc(F)cc2)c(N2CCC(Oc3ccc(C(F)(F)F)nc3)CC2)cn1` [Compound 77, 4-(4-Fluorophenyl)-5-(4-((6-(trifluoromethyl)pyridin-3-yl)oxy)piperidin-1-yl)picolinamide] were greater than 30 µM and 35.1%.
